# Measurements as given in patent publication US10076511B2, “Bisamide derivative of dicarboxylic acid as an agent for stimulating tissue regeneration and recovery of diminished tissue function” (TREAMID GmbH, priority 2015, dated 2018).
# Marks after values point to notes of the source that are not given here.
# How the values were obtained:
# female C57Bl/6 mice = assay: Elastase-induced pulmonary emphysema model; type: in vivo, mouse
# Protocol: Pulmonary emphysema was induced in female C57Bl/6 mice by a single intratracheal administration of elastase (Sigma, USA) at a dose of 0.6 U/mouse in 30 μl of 0.9% NaCl [Lüthje L., Raupach T., Michels H. et al.//Respiratory Research 2009, 10: 7]. The day of operation was taken as Day 0 of the experiment. Treamid was administered at a dose of 10 mg/kg intragastrically once daily, every day from Day 7 to Day 60 of the study. On Days 7, 14, 30 and 60, the animals were euthanized in a CO2 chamber, and their lungs were isolated.
# The dynamics and severity of the developed emphysema in the lung tissue were assessed on histological preparations. For this, the lungs were fixed in a 10% neutral formalin solution and then poured into paraffin by the standard method. The preparations of the lung apex, middle lung field, and lower lung field of a thickness of 5 μm were prepared from the deparaffined sections, and stained with hematoxylin and eosin by the standard procedure. Further, photographs of the lung apex, middle lung field, and lower lung field were made, and the localization and area of emphysema were studied by using graphics processing software. The area of emphysematously enlarged lung tissue (% of normal tissue) was measured as an estimated score of the development of emphysema, and blood vessels and bronchi were excluded from the calculations [ArrateMunoz-Barrutia, Mario Ceresa, Xabier Artaechevarria, Luis M. Montuenga, and Carlos Ortiz-de-Solorzano. Quantification of Lung Damage in an Elastase-Induced Mouse Model of Emphysema//International Journal of Biomedical Imaging. Volume 2012, Article ID 734734, 11 pages; Susumu Sato, Erzsebet Bartoldk-Suki, Harikrishnan Parameswaran, Hiroshi Hamakawal and Bela Suki. Scale dependence of structure-function relationship in the emphysematous mouse lung//Front. Physiol. 6:146. doi: 10.3389/fphys. 2015.00146].
# male C57BL/6 mice [1] = assay: Bleomycin-induced pulmonary fibrosis model; type: in vivo, mouse; settings: Day 21; 10 mg/kg
# Protocol: Toxic damage of the lung alveolar epithelium causing pulmonary fibrosis was simulated by intra-tracheal administration of the cytostatic bleomycin once in a dose of 80 μg/mouse in 30 μl of physiological saline. Anesthesia during the operation was achieved by using inhalation ether. The surgical field was disinfected with a 70% ethanol solution and hair on this field was removed. The skin, subcutaneous tissue and own fascia of the neck were dissected along the middle line of the neck. The muscles were moved apart on the ventral side of the trachea by the method of blunt separation of tissues. Injection of bleomycin was made on inhalation along the airflow by a Hamilton syringe. After suturing the wound, the surgical field was treated with an antiseptic. The administration of bleomycin was taken as Day 0 of the experiment.
# The effectiveness of Treamid and the reproduction of pulmonary fibrosis were estimated by the number and intensity of the synthesis of connective tissue in the lungs, as well as by the histoarchitectonics of the lungs.
# Thus, the staining of histological preparations of the lungs of C57BL/6 mice with picrofuxin according to Van Gieson and subsequent visualization of the connective tissue made it possible to register a significant proliferation of the connective tissue, mainly around the vessels and bronchioles (FIG. 5, Table 36). In addition, lung homogenates of the animals of the intact control and pathological control were investigated by enzyme immunoassay.
# male Wistar rats [2] = assay: Pair-test of sexual behavior, seasonal suppression of copulatory activity; type: in vivo, rat
# Protocol: Seasonal suppression of reproductive activity was simulated by carrying out the experiment in the winter period (end of December). As a background group, intact animals (3 months of age) were tested in June.
# The experiments were carried out on 27 male Wistar rats of reproductive age (3 months). Treamid at a dose of 5 mg/kg and reference drug Sildenafil (at a dose of 3 mg/kg) were administered intragastrically […], once daily for 15 days. The sexual activity was estimated by the pair-test of sexual behavior. The test was carried out twice: before administration and one hour after the last administration of Treamid. The rats of the control groups receiving the solvent were tested at the same time as the animals of the experimental groups.
# The experiment also comprised the use of female rats in the estrus stage caused by a preliminary 4-fold injection of the Synestrel. The effectiveness of Treamid was estimated by the following indices: latency until the first mating attempt (LFM), the number of mating attempts (MN), and the number of ejaculations (EN). The obtained data were compared with those of the same animals before the administration of the tested compound and with the data of the control group (the second test).
# male C57BL/6 mice [3] = assay: Streptozotocin-induced pancreatic lesion model; type: in vivo, mouse; settings: Day 28; Treamid 1 mg/kg
# male Wistar rats [4] = assay: Pair-test of sexual behavior, copulatory activity reduced by Synestrol; type: in vivo, rat
# Protocol: Reduction of copulatory activity caused by androgen deficiency was simulated by administration of Synestrol to male rats.
# The model is based on the antagonism of androgenic and estrogenic hormones. The administration of Synestrol to male rats leads to the suppression of the sexual activity in animals.
# Experiments were performed on 36 male Wistar rats (3 months of age). For 30 days after the beginning of the experiment, all male rats (except for the intact group (background)) were intramuscularly injected with Synestrol at a dose of 50 U/kg/day. Further, from Day 31 to Day 45 of the experiment, animals of the experimental groups, in addition to Synestrol, were intraperitoneally administered Treamid at a dose of 1.5 mg/kg and reference preparation Tribestan at a dose of 70 mg/kg. The sexual activity was estimated by the pair-test of sexual behavior. For this purpose, female rats in the estrus stage caused by a preliminary 4-fold injection of Synestrol were involved in the experiment. The effectiveness of Treamid was estimated by the following indices: latency until the first mating attempt (LFM), the number of mating attempts (mounts), and the number of ejaculations. The obtained data were compared with those of the same animals before the experiment (the first test) and with the data in the control group (the second test).
# [5] = Day 7, Treamid 10 mg/kg intragastrically from Day 7
# [6] = first test, before administration, winter period
# [7] = second test, one hour after last administration, Treamid 5.0 mg/kg, Sildenafil 3 mg/kg intragastrically, 15 days
# [8] = First test, Synestrol-treated rats
# [9] = Second test, Treamid 1.5 mg/kg or Tribestan 70 mg/kg intraperitoneally Day 31-45
compound,measurement,setting,value
O=C(CCCC(=O)NCCc1ncc[nH]1)NCCc1ncc[nH]1 [Treamid],"The area of emphysematously enlarged lung tissue (% of normal), Lower lung field",female C57Bl/6 mice; [5],41.3 ± 1.82 % of normal
same,"The area of emphysematously enlarged lung tissue (% of normal), Lung apex",female C57Bl/6 mice; [5],0.9 ± 0.12*• % of normal
same,"The area of emphysematously enlarged lung tissue (% of normal), Middle lung field",female C57Bl/6 mice; [5],5.4 ± 0.55 % of normal
same,"The area of emphysematously enlarged lung tissue (% of normal), Lower lung field","female C57Bl/6 mice; Day 14, Treamid 10 mg/kg",42.6 ± 1.79*• % of normal
same,"The area of emphysematously enlarged lung tissue (% of normal), Lung apex","female C57Bl/6 mice; Day 14, Treamid 10 mg/kg",0.7 ± 0.09*• % of normal
same,"The area of emphysematously enlarged lung tissue (% of normal), Middle lung field","female C57Bl/6 mice; Day 14, Treamid 10 mg/kg",29.03 ± 1.76 % of normal
same,"The area of emphysematously enlarged lung tissue (% of normal), Lower lung field","female C57Bl/6 mice; Day 30, Treamid 10 mg/kg",32.8 ± 3.78*• % of normal
same,"The area of emphysematously enlarged lung tissue (% of normal), Lung apex","female C57Bl/6 mice; Day 30, Treamid 10 mg/kg",2.4 ± 1.6*• % of normal
same,"The area of emphysematously enlarged lung tissue (% of normal), Middle lung field","female C57Bl/6 mice; Day 30, Treamid 10 mg/kg",18.5 ± 2.91 % of normal
same,"The area of emphysematously enlarged lung tissue (% of normal), Lower lung field","female C57Bl/6 mice; Day 60, Treamid 10 mg/kg",40.0 ± 3.57*• % of normal
same,"The area of emphysematously enlarged lung tissue (% of normal), Lung apex","female C57Bl/6 mice; Day 60, Treamid 10 mg/kg",3.6 ± 0.26*• % of normal
same,"The area of emphysematously enlarged lung tissue (% of normal), Middle lung field","female C57Bl/6 mice; Day 60, Treamid 10 mg/kg",24.9 ± 3.11 % of normal
same,Hydroxyproline (μg/ml) in the lungs,male C57BL/6 mice [1],27.97 ± 2.2 µg/mL
same,The content of connective tissue (%) in the lungs,male C57BL/6 mice [1],1.17 ± 0.20• %
same,Total collagen (mg/ml) in the lungs,male C57BL/6 mice [1],23.4 ± 1.7 mg/mL
same,Type I collagen (ng/ml) in the lungs,male C57BL/6 mice [1],201.6 ± 18 ng/mL
same,decrease of latency until the first mount after administration compared to before,male Wistar rats [2]; Treamid 5 mg/kg,1.8 times
same,increase of total number of mating attempts,"male Wistar rats [2]; Treamid 5 mg/kg, statistically insignificant",1.8 times
same,LFM,male Wistar rats [2]; [6],462.00 ± 117.81 s
same,"the number of ejaculations, %",male Wistar rats [2]; [6],0%
same,"the number of mounts, abs.",male Wistar rats [2]; [6],3.67 ± 1.34 abs.
same,"LFM, sec",male Wistar rats [2]; [7],251.33 ± 103.86♦ sec
same,"the number of mounts, abs.",male Wistar rats [2]; [7],6.56 ± 1.68 abs.
same,Total collagen (mg/ml) in the pancreas,male C57BL/6 mice [3],41 ± 4 mg/mL
same,Type I collagen (ng/ml) in the pancreas,male C57BL/6 mice [3],665 ± 55*• ng/ml
same,"Ejaculating animals, %",male Wistar rats [4]; [8],0.00%#
same,LFM,male Wistar rats [4]; [8],373.89 ± 112.89 s
same,"The number of mounts, abs.",male Wistar rats [4]; [8],5.89 ± 1.91 abs.
same,LFM,male Wistar rats [4]; [9],381.22 ± 115.18 s
same,"The number of mounts, abs.",male Wistar rats [4]; [9],8.00 ± 3.12 abs.
